From PubChem BioAssay AID248 (DTP/NCI, 2004)
Values joined by “and” are separate entries in the source; they are usually repeats but may differ in a detail not shown here. Equal values may be shown once. Toxic doses and inconclusive results are not listed. Rule as the data show it: active = T/C of 150% or more; inactive = T/C below 125%.

Test system: L1210 leukemia ip in BDF1 mice, survival T/C
Assay: NCI In Vivo Anticancer Drug Screen. Data for tumor model L1210 Leukemia (intraperitoneal) in B6D2F1 (BDF1) mice
Details: higher = longer survival
Summary of the method: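 Antitumor effect is assessed in tumor-bearing animals. Survival in the compound arm is compared with a vehicle-dosed control arm and expressed as their quotient.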

[1] = endpoint: mean survival time, dose: 100.0 mg/kg/injection, schedule: Q01DX001 (ip), vehicle: carboxymethylcellulose (CMC)
[2] = endpoint: mean survival time, dose: 200.0 mg/kg/injection, schedule: Q01DX001 (ip), vehicle: carboxymethylcellulose (CMC)
[3] = endpoint: mean survival time, dose: 400.0 mg/kg/injection, schedule: Q01DX001 (ip), vehicle: carboxymethylcellulose (CMC)
[4] = endpoint: mean survival time, dose: 100.0 mg/kg/injection, schedule: Q04DX002 (ip), vehicle: Klucel (hydroxypropylcellulose) (HPC)
[5] = endpoint: mean survival time, dose: 200.0 mg/kg/injection, schedule: Q04DX002 (ip), vehicle: Klucel (hydroxypropylcellulose) (HPC)
[6] = endpoint: mean survival time, dose: 400.0 mg/kg/injection, schedule: Q04DX002 (ip), vehicle: Klucel (hydroxypropylcellulose) (HPC)
[7] = endpoint: mean survival time, dose: 100.0 mg/kg/injection, schedule: Q01DX001 (ip), vehicle: saline
[8] = endpoint: mean survival time, dose: 200.0 mg/kg/injection, schedule: Q01DX001 (ip), vehicle: saline
[9] = endpoint: mean survival time, dose: 400.0 mg/kg/injection, schedule: Q01DX001 (ip), vehicle: saline
[10] = endpoint: mean survival time, dose: 100.0 mg/kg/injection, schedule: Q01DX001 (ip), vehicle: saline with Tween-80
[11] = endpoint: mean survival time, dose: 200.0 mg/kg/injection, schedule: Q01DX001 (ip), vehicle: saline with Tween-80
[12] = endpoint: mean survival time, dose: 400.0 mg/kg/injection, schedule: Q01DX001 (ip), vehicle: saline with Tween-80
[13] = endpoint: mean survival time, dose: 100.0 mg/kg/injection, schedule: Q01DX009 (ip), vehicle: saline with Tween-80
[14] = endpoint: mean survival time, dose: 50.0 mg/kg/injection, schedule: Q01DX009 (ip), vehicle: saline with Tween-80
[15] = endpoint: mean survival time, dose: 200.0 mg/kg/injection, schedule: Q01DX009 (ip), vehicle: saline with Tween-80

Measured: T/C

CC(=O)CCNc1ccc(O)c2c1C(=O)c1ccccc1C2=O
inactive: [1] 96 % of control | [2] 89 % of control | [3] 94 % of control

CCOC(=O)C1(C)CCCCC1=O (stereo unspecified)
inactive: endpoint: mean survival time, dose: 100.0 mg/kg/injection, schedule: Q01DX009 (ip), vehicle: saline sonified 110 % of control | endpoint: mean survival time, dose: 200.0 mg/kg/injection, schedule: Q01DX009 (ip), vehicle: saline sonified 96 % of control | endpoint: mean survival time, dose: 400.0 mg/kg/injection, schedule: Q01DX009 (ip), vehicle: saline sonified 105 % of control

C(=C/c1ccccc1)/C=N/Nc1ccccc1
inactive: endpoint: mean survival time, dose: 100.0 mg/kg/injection, schedule: Q04DX003 (ip), vehicle: Klucel (hydroxypropylcellulose) (HPC) 98 % of control | endpoint: mean survival time, dose: 200.0 mg/kg/injection, schedule: Q04DX003 (ip), vehicle: Klucel (hydroxypropylcellulose) (HPC) 95 % of control | endpoint: mean survival time, dose: 400.0 mg/kg/injection, schedule: Q04DX003 (ip), vehicle: Klucel (hydroxypropylcellulose) (HPC) 92 % of control

CCOC(=O)C(CO)(CC(CO)(C(C)=O)C(=O)OCC)C(C)=O (stereo unspecified)
inactive: endpoint: mean survival time, dose: 222.0 mg/kg/injection, schedule: Q01DX Z (ip), vehicle: methylcellulose (MC) 98 % of control | endpoint: mean survival time, dose: 333.0 mg/kg/injection, schedule: Q01DX Z (ip), vehicle: methylcellulose (MC) 110 % of control | endpoint: mean survival time, dose: 500.0 mg/kg/injection, schedule: Q01DX Z (ip), vehicle: methylcellulose (MC) 108 % of control

CCCP(CCC)c1ccccc1
inactive: endpoint: mean survival time, dose: 100.0 mg/kg/injection, schedule: Q01DX009 (sc), vehicle: olive oil, sesame oil, peanut oil 96 % of control | endpoint: mean survival time, dose: 100.0 mg/kg/injection, schedule: Q04DX003 (sc), vehicle: olive oil, sesame oil, peanut oil 93 % of control | endpoint: mean survival time, dose: 200.0 mg/kg/injection, schedule: Q01DX009 (sc), vehicle: olive oil, sesame oil, peanut oil 113 % of control | endpoint: mean survival time, dose: 200.0 mg/kg/injection, schedule: Q04DX003 (sc), vehicle: olive oil, sesame oil, peanut oil 95 % of control | endpoint: mean survival time, dose: 400.0 mg/kg/injection, schedule: Q01DX009 (sc), vehicle: olive oil, sesame oil, peanut oil 100 % of control | endpoint: mean survival time, dose: 400.0 mg/kg/injection, schedule: Q04DX003 (sc), vehicle: olive oil, sesame oil, peanut oil 91 % of control

CCC(C)N1OC1c1ccccc1 (stereo unspecified)
inactive: [1] 106 % of control | [2] 103 % of control | [3] 101 % of control

COc1cccc(NC(=S)NN(C)C)c1
inactive: [4] 94 % of control | [5] 122 % of control | [6] 112 % of control

C[As+]1(N)c2ccccc2Nc2ccccc21
inactive: [7] 86 % of control | [8] 93 % of control | [9] 91 % of control

Cc1cc(OCCOC(=O)Nc2ccccc2F)ccc1Cl
inactive: endpoint: mean survival time, dose: 100.0 mg/kg/injection, schedule: Q01DX009 (ip), vehicle: Klucel (hydroxypropylcellulose) (HPC) 107 % of control | endpoint: mean survival time, dose: 200.0 mg/kg/injection, schedule: Q01DX009 (ip), vehicle: Klucel (hydroxypropylcellulose) (HPC) 102 % of control | endpoint: mean survival time, dose: 400.0 mg/kg/injection, schedule: Q01DX009 (ip), vehicle: Klucel (hydroxypropylcellulose) (HPC) 112 % of control

Cl
inactive: endpoint: mean survival time, dose: 50.0 mg/kg/injection, schedule: Q01DX009 (oral), vehicle: water 97 % of control | endpoint: median survival time, dose: 15.0 mg/kg/injection, schedule: Q01DX009 (ip), vehicle: water 87 % of control | endpoint: median survival time, dose: 30.0 mg/kg/injection, schedule: Q01DX009 (ip), vehicle: water 100 % of control | endpoint: median survival time, dose: 60.0 mg/kg/injection, schedule: Q01DX009 (ip), vehicle: water 112 % of control | endpoint: median survival time, dose: 90.0 mg/kg/injection, schedule: Q01DX009 (ip), vehicle: water 112 % of control

CCOC(=O)c1ccc(NCc2cccc([N+](=O)[O-])c2)cc1
inactive: [10] 103 % of control | [11] 90 % of control | [12] 88 % of control

NCCCCC(NC(=O)OCc1ccccc1)C(=O)CCl (stereo unspecified)
inactive: endpoint: mean survival time, dose: 10.0 mg/kg/injection, schedule: Q04DX002 (ip), vehicle: saline 109 % of control | endpoint: mean survival time, dose: 20.0 mg/kg/injection, schedule: Q04DX002 (ip), vehicle: saline 95 % of control

C(=C1/CC2CCC1C2)/c1ccccc1 (stereo unspecified)
inactive: [7] 98 % of control | endpoint: mean survival time, dose: 100.0 mg/kg/injection, schedule: Q04DX003 (ip), vehicle: saline 93 % of control | [8] 103 % of control | endpoint: mean survival time, dose: 200.0 mg/kg/injection, schedule: Q04DX003 (ip), vehicle: saline 93 % of control | [9] 101 % of control | endpoint: mean survival time, dose: 400.0 mg/kg/injection, schedule: Q04DX003 (ip), vehicle: saline 89 % of control

CCOC(=O)Cc1ccc2[nH]c(C(=O)OCC)cc(=O)c2c1
inactive: [7] 95 % of control | [8] 90 % of control | [9] 95 % of control

S=P1(c2ccccc2)Nc2ccc(Cl)cc2N1 (stereo unspecified)
inactive: endpoint: mean survival time, dose: 75.0 mg/kg/injection, schedule: Q04DX002 (ip), vehicle: gum acacia 104 % of control | endpoint: mean survival time, dose: 150.0 mg/kg/injection, schedule: Q04DX002 (ip), vehicle: gum acacia 104 % of control | endpoint: mean survival time, dose: 300.0 mg/kg/injection, schedule: Q04DX002 (ip), vehicle: gum acacia 101 % of control

CC1(C)c2ccccc2C(=O)C1(Br)Cc1ccccc1 (stereo unspecified)
inactive: [13] 90 % of control

CCN1CCC2=C(CCCC2O)C1 (stereo unspecified)
inactive: endpoint: mean survival time, dose: 75.0 mg/kg/injection, schedule: Q01DX001 (ip), vehicle: steriod suspending solution 104 % of control | endpoint: mean survival time, dose: 150.0 mg/kg/injection, schedule: Q01DX001 (ip), vehicle: steriod suspending solution 98 % of control

CCCCCCCCCCCCC1CCCC(C)C1 (stereo unspecified)
inactive: endpoint: mean survival time, dose: 25.0 mg/kg/injection, schedule: Q01DX009 (ip), vehicle: saline with Tween-80 89 % of control | [14] 99 % of control | [13] 92 % of control | endpoint: mean survival time, dose: 100.0 mg/kg/injection, schedule: Q04DX002 (ip), vehicle: saline with Tween-80 105 % of control and 90 % of control | endpoint: mean survival time, dose: 200.0 mg/kg/injection, schedule: Q04DX002 (ip), vehicle: saline with Tween-80 104 % of control and 90 % of control | endpoint: mean survival time, dose: 400.0 mg/kg/injection, schedule: Q01DX009 (ip), vehicle: saline with Tween-80 90 % of control | endpoint: mean survival time, dose: 800.0 mg/kg/injection, schedule: Q04DX002 (ip), vehicle: saline with Tween-80 97 % of control

COc1cc2c(cc1OC)/C(=C(\C#N)CCC(C)=O)NCC2
inactive: [1] 92 % of control | [2] 92 % of control

CCOC(=O)CC1CCN(C(=O)c2ccccc2)C(Cc2c[nH]c3ccccc23)C1=O (stereo unspecified)
inactive: [7] 95 % of control | [8] 94 % of control | [9] 94 % of control

CCn1c2ccccc2c2cc3c(cc21)C(C)=NCC3
inactive: endpoint: mean survival time, dose: 25.0 mg/kg/injection, schedule: Q04DX002 (ip), vehicle: Klucel (hydroxypropylcellulose) (HPC) 112 % of control | endpoint: mean survival time, dose: 50.0 mg/kg/injection, schedule: Q04DX002 (ip), vehicle: Klucel (hydroxypropylcellulose) (HPC) 102 % of control | [4] 102 % of control

O=c1oc2ccc3ccccc3c2c(-c2ccc(O)cc2)c1-c1ccccc1
inactive: [10] 89 % of control | [11] 92 % of control | [12] 92 % of control

C=CS(=O)(=O)CCCC
inactive: [13] 97 % of control | [15] 101 % of control

CCN(CC)CCC#N
inactive: endpoint: mean survival time, dose: 50.0 mg/kg/injection, schedule: Q01DX001 (ip), vehicle: saline 94 % of control | [7] 94 % of control | [8] 100 % of control

COc1ccc(OC)c2[nH]c(-c3ccccc3)cc12
inactive: [4] 96 % of control | [5] 105 % of control | [6] 93 % of control

COc1ccc(NC(=O)Oc2ccccc2C(N)=O)c(Cl)c1
inactive: [4] 96 % of control | [5] 104 % of control

O=P(NCCO)(OCC(Br)CBr)OCC(Br)CBr (stereo unspecified)
inactive: [14] 94 % of control | [13] 102 % of control | [15] 98 % of control
